The supplement of paper PMC10307832

Experiments:
Test in all cases: relative viability (nuclei count vs DMSO), 5 days (fraction); higher = more cells survive
Venetoclax + Luminespib = compound: CC1(C)CCC(CN2CCN(c3ccc(C(=O)NS(=O)(=O)c4ccc(NCC5CCOCC5)c([N+](=O)[O-])c4)c(Oc4cnc5[nH]ccc5c4)c3)CC2)=C(c2ccc(Cl)cc2)C1 [Venetoclax] + CCNC(=O)c1noc(-c2cc(C(C)C)c(O)cc2O)c1-c1ccc(CN2CCOCC2)cc1 [Luminespib] (partner 0.01 µM)
How it was run: (§1)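 The day after seeding in 1536-well plates, lung cancer cell lines were treated by pin tool with a single drug, or with a fixed anchor-drug dose together with five library-drug doses (not always all listed) in √10 steps. After 5 days, a combined fix-and-stain solution (final 0.05% Triton X-100, 1% formaldehyde, 1 ug/ml Hoechst) was added. Nuclei counted on 4× images gave relative viability as treated counts over vehicle counts, reported as the median of duplicate plates.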

Venetoclax + Crizotinib = compound: CC1(C)CCC(CN2CCN(c3ccc(C(=O)NS(=O)(=O)c4ccc(NCC5CCOCC5)c([N+](=O)[O-])c4)c(Oc4cnc5[nH]ccc5c4)c3)CC2)=C(c2ccc(Cl)cc2)C1 [Venetoclax] + C[C@@H](Oc1cc(-c2cnn(C3CCNCC3)c2)cnc1N)c1c(Cl)ccc(F)c1Cl [Crizotinib] (partner 1 µM)
How it was run: as §1

Venetoclax + Pemetrexed = compound: CC1(C)CCC(CN2CCN(c3ccc(C(=O)NS(=O)(=O)c4ccc(NCC5CCOCC5)c([N+](=O)[O-])c4)c(Oc4cnc5[nH]ccc5c4)c3)CC2)=C(c2ccc(Cl)cc2)C1 [Venetoclax] + Nc1nc2[nH]cc(CCc3ccc(C(=O)N[C@@H](CCC(=O)O)C(=O)O)cc3)c2c(=O)[nH]1 [Pemetrexed] (partner 0.2 µM)
How it was run: as §1

Selumetinib + OSI-027 = compound: Cn1cnc2c(F)c(Nc3ccc(Br)cc3Cl)c(C(=O)NOCCO)cc21 [Selumetinib] + COc1cccc2cc(-c3nc([C@H]4CC[C@H](C(=O)O)CC4)n4ncnc(N)c34)[nH]c12 [OSI-027] (partner 0.5 µM)
How it was run: as §1

Row | Cell Line | relative viability (Venetoclax + Luminespib; first compound 0.01 µM) | relative viability (Venetoclax + Luminespib; first compound 0.03162 µM) | relative viability (Venetoclax + Luminespib; first compound 0.1 µM) | relative viability (Venetoclax + Luminespib; first compound 0.3162 µM) | relative viability (Venetoclax + Luminespib; first compound 1 µM) | relative viability (Venetoclax + Crizotinib; first compound 0.01 µM) | relative viability (Venetoclax + Crizotinib; first compound 0.03162 µM) | relative viability (Venetoclax + Crizotinib; first compound 0.3162 µM) | relative viability (Venetoclax + Crizotinib; first compound 1 µM) | relative viability (Venetoclax + Pemetrexed; first compound 0.01 µM) | relative viability (Venetoclax + Pemetrexed; first compound 0.03162 µM) | relative viability (Venetoclax + Pemetrexed; first compound 0.1 µM) | relative viability (Venetoclax + Pemetrexed; first compound 0.3162 µM) | relative viability (Venetoclax + Pemetrexed; first compound 1 µM) | relative viability (Selumetinib + OSI-027; first compound 0.02 µM) | relative viability (Selumetinib + OSI-027; first compound 0.06325 µM) | relative viability (Selumetinib + OSI-027; first compound 0.2 µM) | relative viability (Selumetinib + OSI-027; first compound 0.6325 µM) | relative viability (Venetoclax + Crizotinib; first compound 0.1 µM)
1 | NCI-H650 | 0.805 | 0.837 | 0.751 | 0.954 | 0.735 | 0.725 | 0.699 | 0.701 | 0.641 | 0.911 | 1.02 | 1.03 | 0.89 | 0.836 | 0.66 | 0.806 | 0.825 | 0.826 | –
2 | A-427 | 0.903 | 0.847 | 0.889 | 1.07 | 0.891 | 0.584 | 1.09 | 0.924 | 1 | 0.988 | 0.967 | 1.03 | 1.04 | 0.978 | 0.482 | 0.327 | 0.321 | 0.288 | 0.873
3 | EMC-BAC-2 | 1.09 | 1.16 | 1.23 | 1.21 | 1.1 | 0.687 | 0.774 | 0.775 | 0.71 | 0.406 | 0.457 | 0.407 | 0.467 | 0.417 | 0.42 | 0.447 | 0.511 | 0.483 | 0.779
4 | NCI-H520 | 0.258 | 0.209 | 0.221 | 0.209 | 0.187 | 0.769 | 0.698 | 0.835 | 0.698 | 0.781 | 0.73 | – | 0.626 | 0.646 | 0.242 | 0.243 | 0.243 | 0.238 | 0.658
5 | LOU-NH91 | 0.271 | 0.374 | 0.345 | 0.336 | 0.326 | 0.751 | 0.751 | 0.729 | 0.697 | 0.362 | 0.365 | 0.392 | 0.327 | 0.337 | 0.701 | 0.68 | 0.646 | 0.615 | 0.756
6 | HOP-62 | 0.945 | 0.892 | 0.926 | 0.8 | 0.842 | 0.896 | 0.867 | 1.1 | 0.83 | 0.356 | 0.335 | 0.287 | 0.313 | 0.355 | 0.887 | 0.751 | 0.818 | 0.5 | 0.79
7 | HCC-366 | – | – | – | – | – | 0.502 | 0.609 | 0.505 | 0.388 | 0.16 | 0.16 | 0.172 | 0.186 | 0.197 | 0.911 | 0.756 | 0.72 | 0.422 | 0.621
8 | NCI-H1703 | – | – | – | – | – | 0.655 | 0.635 | 1.15 | 0.605 | – | – | – | – | – | – | – | – | – | 0.634
9 | Calu-6 | – | – | – | – | – | 0.79 | 0.798 | 0.776 | 0.72 | – | – | – | – | – | – | – | – | – | 0.794
10 | NCI-H1299 | – | – | – | – | – | 0.974 | 0.998 | 0.912 | 0.907 | – | – | – | – | – | – | – | – | – | 0.937
11 | EBC-1 | – | – | – | – | – | 0.213 | 0.18 | 0.211 | 0.146 | – | – | – | – | – | – | – | – | – | 0.207
12 | NCI-H1623 | 0.545 | 0.502 | 0.566 | 0.6 | 0.464 | – | – | – | – | – | – | – | – | – | 0.39 | 0.383 | 0.343 | 0.359 | –
13 | NCI-H2342 | 0.807 | 0.737 | 0.635 | 0.765 | 0.719 | – | – | – | – | 0.872 | 0.784 | 0.747 | 0.738 | 0.717 | 0.611 | 0.6 | 0.46 | 0.59 | –
14 | SW 900 | 0.163 | 0.153 | 0.197 | 0.168 | 0.182 | – | – | – | – | 0.478 | 0.51 | 0.465 | 0.499 | 0.489 | 0.594 | 0.554 | 0.477 | 0.588 | –
15 | NCI-H1793 | 0.152 | 0.194 | 0.164 | 0.19 | 0.162 | – | – | – | – | 0.944 | 0.976 | 0.732 | 0.799 | 0.713 | 0.251 | 0.243 | 0.231 | 0.258 | –
16 | IA-LM | – | – | – | – | – | 0.727 | 0.709 | 0.848 | 0.708 | – | – | – | – | – | – | – | – | – | 0.584
17 | NCI-H727 | 0.465 | 0.439 | 0.209 | 0.303 | 0.357 | 0.838 | 0.922 | 0.976 | 0.673 | – | – | – | – | – | 0.603 | 0.395 | 0.332 | 0.427 | 0.912
18 | NCI-H1395 | 0.661 | 0.805 | 0.517 | 0.793 | 0.658 | – | – | – | – | 0.823 | 0.862 | 0.764 | 0.95 | 0.819 | 0.625 | 0.641 | 0.628 | 0.631 | –
19 | NCI-H522 | 1.14 | 1.21 | 1.04 | – | 1.19 | – | – | – | – | 1.13 | 1.01 | 0.879 | 1.19 | 0.759 | 0.693 | 0.64 | 0.685 | 0.682 | –
20 | A549 | – | – | – | – | – | 0.707 | 0.668 | 0.649 | 0.61 | – | – | – | – | – | – | – | – | – | 0.886
21 | NCI-H1648 | – | – | – | – | – | – | – | – | – | – | 0.774 | 0.64 | 0.626 | 0.718 | 0.29 | 0.266 | 0.293 | 0.289 | –
22 | ABC-1 | 0.553 | 0.53 | 0.689 | 0.431 | 0.912 | 0.921 | 0.99 | 1.12 | 1.04 | – | – | – | – | – | 0.373 | 0.403 | 0.367 | 0.345 | 1.06
23 | HCC-78 | – | – | – | – | – | 0.315 | 0.338 | 0.393 | 0.362 | 0.896 | 0.875 | 0.965 | 0.935 | 0.881 | 0.346 | 0.397 | 0.396 | 0.385 | 0.307
